# Source: US20200188441A1, “METHODS AND COMPOSITIONS FOR REDUCING CORNEAL ENDOTHELIAL CELL LOSS” (The Schepens Eye Research Institute, Inc., priority 2017, published 2020)
# No end group written: not given here.
# What was measured:
# [1] = test system: corneal graft; experiment: High-risk allogeneic corneal transplantation; format: in vivo, mice
# From the text: FIGS. 12A-D are graphs and images showing the effect of VIP treatment on high-risk corneal transplant survival. Animals underwent high-risk allogeneic corneal transplantation and received treatment with VIP at 1, 3, 5, 7 and 9 days after transplantation. […] Each group consists of n=14. FIG. 12C: Representative confocal micrographs of central area of transplanted corneas in VIP-treated mice and in controls at 1, 2 and 8 weeks post-transplantation. Corneal endothelial cell-to-cell junction were stained and visualized with zonula occluden-1 (ZO-1, green). The scale bars are equal to 100 μm (magnification ×40). […] Horizontal line represents the CEnC density of nave age-matched C57BL/6 corneas. Each group consists of n=5 corneas. All data are presented as mean±SEM, and data from one out of two independent experiments is shown.
# [2] = test system: corneal graft; experiment: Murine model of syngeneic corneal transplantation with endothelial injury; format: in vivo
# From the text: FIG. 11A: Representative slit-lamp images showing corneas at week 2-6 post-transplantation (magnification ×25). […] FIG. 11C: Representative confocal micrographs of central area of transplanted corneas isolated from VIP-treated mice and the control groups at week 2, 4 and 6 after transplantation. To visualize corneal endothelial cell-to-cell junctions, corneas were stained with zonula occluden-1 (ZO-1, green). The scale bars are equal to 100 μm (magnification ×40). FIG. 11D: Bar diagram showing central endothelial cell density in VIP-treated corneas and controls at 2, 4 and 6 weeks post-transplantation. Data are presented as mean±SEM. Each group consists of n=6 corneas, and data from one out of two independent experiments is shown.
# [3] = test system: human corneal endothelial cells; experiment: Corneal endothelial wound healing in vitro; format: cell-based; conditions: VIP 10^−9, 10^−7 and 10^−6 M; 12 and 24 hours after incubation; vs control
# From the text: FIG. 9 is a graph showing that VIP treatment of human corneal endothelial cells accelerates corneal endothelial wound healing in vitro in a dose-dependent manner Percentage of healed endothelial area compared to baseline in VIP-treated groups and in control. […] Error bars indicate mean±SEM. Each group consists of n=9, and data from one out of two independent experiments is shown.
# [4] = test system: corneal endothelial cells; experiment: IFNγ- and TNFα-mediated corneal endothelial cell apoptosis in corneal cups ex vivo (TUNEL); format: cell-based, C57BL/6; conditions: VIP 10^−6 M; 18 hours of incubation
# Experimental: FIG. 10A is a set of micrographs and FIG. 10B is a graph showing that VIP suppresses IFNγ- and TNFα-mediated corneal endothelial cell apoptosis. FIG. 10A: Representative confocal micrographs showing nave C57BL/6 corneal cups incubated with either IFNγ or TNFα with or without VIP (10^−12, 10^−9, 10^−6 M). After 18 hours of incubation, corneas were stained for zonula occluden-1 (ZO-1, green) and terminal deoxynucleotidyl transferase-mediated dUTP nick-end labeling assay (TUNEL, red) to visualize endothelial cell-to-cell junctions and apoptotic cells, respectively. The scale bars are equal to 100 μm (magnification ×40). FIG. 10B: Bar diagram showing the percentages of apoptotic (TUNEL-positive) corneal endothelial cells incubated ex vivo with either IFNγ or TNFα with different doses of VIP. […] Data are presented as mean±SEM. Each group consists of n=5 corneas and data from one out of two independent experiments is shown.
substance,measurement,setting,value
"VIP: vasoactive intestinal polypeptide, a neuropeptide; exemplary human sequence SEQ ID NO: 5 (HSDAVFTDNYTRLRKQMAVKKYLNSILN; ends and bridges not checked; UniProt P01282 125-152, looked up)",graft opacity scores,"[1]; 4 to 8 weeks post-transplantation, VIP at 1, 3, 5, 7 and 9 days after transplantation",significantly decreased
same,central CEnC density,"[1]; 8 weeks post-transplantation, vs control",significantly higher
same,"hazard ratio (graft survival, VIP-treated vs controls)","[1]; 8 weeks, 95% CI 0.04-0.26, Log rank test",0.10
same,graft survival,"[1]; weekly examination for 8 weeks, controls 0%",85%
same,corneal endothelial wound healing,[2]; syngeneic transplantation with endothelial injury,enhances corneal endothelial wound healing
same,graft opacity scores,"[2]; week 2 to 6 post-transplantation, vs control",significantly decreased
same,wound healing (percentage of healed endothelial area compared to baseline),[3],significantly enhanced wound healing
same,IFNγ-mediated corneal endothelial cell apoptosis (TUNEL-positive cells),[4],significantly suppresses
same,TNFα-mediated corneal endothelial cell apoptosis (TUNEL-positive cells),[4],significantly suppresses
